Measurements taken from patent publication US11203633B2, “Polynucleotides encoding antibodies or antigen binding fragments thereof that bind pseudomonas perv” (priority 2011, dated 2021).

Key:
[1] = system: P. aeruginosa strain 6077 (O11-cytotoxic); experiment: Corneal infection (ocular keratitis) model in mice; type: in vivo, Pseudomonas aeruginosa
[2] = system: luminescent P. aeruginosa serogroup 011 strain (9882-80.lux); experiment: OPK assay, 9882-80.lux; type: cell-based, Pseudomonas aeruginosa; details: strain 9882-80 (O11); FIG. 2B
Experimental: (§1) This example describes the evaluation of prioritized human IgG1 antibodies to promote OPK of P. aeruginosa. […] OPK assays were performed as described in (DiGiandomenico, A., et al., Infect Immun 72, 7012-7021 (2004)), with modifications. Briefly, assays were performed in 96-well plates using 0.025 ml of each OPK component; P. aeruginosa strains; diluted baby rabbit serum; differentiated HL-60 cells; and monoclonal antibody. In some OPK assays, luminescent P. aeruginosa strains, which were constructed as described (Choi, K. H., et al., Nat Methods 2, 443-448 (2005)), were used. Luminescent OPK assays were performed as described above but with determination of relative luciferase units (RLUs) using a Perkin Elmer ENVISION Multilabel plate reader (Perkin Elmer).
The ability of the WapR-004 and Cam-003 antibodies to mediate OPK activity against another clinically relevant 0-antigen serotype strain, 9882-80.lux, was evaluated.

[3] = system: wild type PAO1, PAO1ΔpslA and PAO1ΔpslA complemented with pslA; experiment: OPK assay with PAO1 pslA mutant strains; type: cell-based, Pseudomonas aeruginosa; details: FIG. 3F-G
Experimental: as §1
This example describes identification of the target of anti-P. aeruginosa antibodies derived from phenotypic screening. Target analysis was performed to test whether the serotype independent antibodies targeted protein or carbohydrate antigens. […] Isogenic mutants were constructed in genes responsible for 0-antigen, alginate, and LPS core biosynthesis; wbpL (O-antigen-deficient); wbpL/algD (O-antigen and alginate deficient); rmlC (O-antigen-deficient and truncated outer core); and galU (O-antigen-deficient and truncated inner core). […]

[4] = system: P. aeruginosa strains 6077, 6206, 6294; experiment: Thermal injury model in mice, survival; type: in vivo, Pseudomonas aeruginosa; details: 6077 2×10^5 CFU, FIG. 8E
Experimental: Antibodies or PBS were administered 24 hours before infection in each model. P. aeruginosa acute pneumonia, keratitis, and thermal injury infection models were performed as described (DiGiandomenico, A., et al., Proc Natl Acad Sci USA 104, 4624-4629 (2007)), with modifications. In the acute pneumonia model, BALB/c mice (The Jackson Laboratory) were infected with P. aeruginosa strains suspended in a 0.05 ml inoculum. In the thermal injury model, CF-1 mice (Charles River) received a 10% total body surface area burn with a metal brand heated to 92° C. for 10 seconds. Animals were infected subcutaneously with P. aeruginosa strain 6077 at the indicated dose. For organ burden experiments, acute pneumonia was induced in mice followed by harvesting of lungs, spleens, and kidneys 24 hours post-infection for determination of CFU.
Survival effect of the Bs4-GLO bispecific antibody was evaluated in a P. aeruginosa thermal injury model against different P. aeruginosa strains. […] Animals were treated with Bs4-GLO or […] to induction of thermal injury and subcutaneous infection with P. aeruginosa strain (A) 6077 (O11-ExoU^+) or (B) 6206 (O11-ExoU^+) or (C) 6294 (06) directly under the wound.
(A) Animals were treated with Bs4-GLO or R347 (A) 4h hours or (B) 12 hours after induction of thermal injury and subcutaneous infection with P. aeruginosa strain 6077 (O11-ExoU^+) directly under the wound.

## Cam-003: anti-Psl human IgG1 monoclonal antibody; VH SEQ ID NO:1, VL SEQ ID NO:2
[1]; 15 mg/kg, FIG. 8C
  difference vs control IgG1 (pathology scores / viable CFU), Mann-Whitney U-test P: 0.0003
[1]; 15 mg/kg, FIG. 8D
  difference vs control IgG1 (pathology scores / viable CFU), Mann-Whitney U-test P: 0.0015
[1]; 45 mg/kg, FIG. 8A
  difference vs control IgG1 (pathology scores / viable CFU), Mann-Whitney U-test P: 0.0001
[1]; 6077, antibody 24 hours prior to infection, FIG. 8A-D, F-G
  corneal pathology and bacterial counts vs negative control-treated animals: significantly less pathology and reduced bacterial counts in total eye homogenates
[2]
  OPK activity: OPK activity extends to strain 9882-80 (O11)
[3]
  opsonophagocytic killing of Psl-producing vs Psl-deficient strains: only mediates killing of strains capable of producing Psl
[4]; 5 mg/kg
  survival R347 vs. Cam-003, log-rank P: 0.0017
[4]; 15 mg/kg
  survival R347 vs. Cam-003, log-rank P: 0.0094
[4]; CF-1 mice
  protection compared to the antibody-treated control: significant protection at 15 and 5 mg/kg
